Paper PMC7179994 (Thrombosis and haemostasis, 2019)

Assays:
[1] = test system: leukocyte (neutrophil) infiltration into the peritoneum, wild-type C57BL/6J mice; assay: Mouse model of peritonitis, leukocyte infiltration, wild-type mice; type: in vivo; conditions: 0.8 μM i.v. in 200 μL PBS, without (β15–44)2, 4 hours, n = 7
[2] = test system: transendothelial migration of leukocytes; conditions: fibrinogen; cited from earlier work

Molecule | Infiltration of leukocytes, Fyn inhibitor alone [1] | Transendothelial migration of leukocytes [2]
CN1CCN(CCOc2cc(OC3CCOCC3)c3c(Nc4c(Cl)ccc5c4OCO5)ncnc3c2)CC1 [Saracatinib] | no effect on infiltration of leukocytes | –
fibrinogen | – | promotes transendothelial migration of leukocytes
